# Experiment: gradient 5% acetonitrile 3 min, to 50% in 2 min, to 85% in 15 min, held 3 min, 100 µL/min
# Settings: column: Zorbax Extend-C18 2.1 x 50 mm; eluents: water / acetonitrile, 0.1% formic acid
# Procedure, shortened: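 The mobile phases were water and acetonitrile, each with 0.1% formic acid, pumped at 100 μL/min through a Zorbax Extend-C18 column (2.1 × 50 mm, 1.8 μm). Pure standards were injected as mixtures of ~100 molecules and detected by a quadrupole time-of-flight mass spectrometer in positive and negative ionization mode. Retention time came from computationally picked adduct peaks, each inspected by hand.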
row,RP-LC retention time [s],Compound
1,806,COC1CN(c2cccc(F)c2)C12CCN(CC1CCCCC1)CC2 (stereo not given)
2,1070,CC1CCN(S(=O)(=O)c2ccc3nn(Cc4cccc(Cl)c4)c(=O)n3c2)CC1
3,1310,CCCCc1ccc(NC(=O)CSc2cc(N3CCN(c4ccccc4OC)CC3)ncn2)cc1
4,706,Cc1ccccc1NC(=O)N1C[C@@H]2C[C@H](NC(=O)c3cccs3)[C@H]1C2
5,688,CS(=O)(=O)N1CCC(OC2CCN(C(=O)Cc3c[nH]c4ccccc34)CC2)CC1
6,732,COc1ccc(C(=O)NC2CCN(c3cc(-c4ccc(Cl)cc4)[nH]n3)C2)cn1 (stereo not given)
7,1230,CCN1C(=O)COc2ccc(-c3noc(-c4ccc(C)cc4)n3)cc21
8,652,Cc1nn(C)cc1C(C)NC(=O)C1CCN(c2cnn(Cc3ccccc3)c(=O)c2)CC1 (stereo not given)
9,1250,CCOC(=O)Cc1c(C)nc2c(-c3cccc(Br)c3)cnn2c1C
10,825,CC1(C)CS(=O)(=O)N(c2ccc(C(=O)NCCc3c[nH]c4ccccc34)cc2)C1=O
11,1070,CCSc1nc2ccc(NS(=O)(=O)c3cc(C)ccc3C)cc2s1
12,631,CC(=O)N1CCCC(c2nc(CNC(=O)C3CCC3)cs2)C1 (stereo not given)
13,956,Cc1nc(C)c(C(=O)Nc2nc(-c3ccc(F)cc3)c(C)s2)s1
14,982,O=C(c1cccn1Cc1noc(C2CC2)n1)N1CCc2ccccc21
15,1010,Brc1c(Br)c(Br)c2n[nH]nc2c1Br
16,983,CCn1cc(-c2nc(C(=O)NCc3cccc(F)c3)cs2)c2cccnc21
17,582,CN1C(=O)C2CCCCN2c2ccc(C(=O)NCCN3CCOCC3)cc21 (stereo not given)
18,602,Cn1c(CNC(=O)C2CCc3sc(C(=O)N4CCCC4)cc3C2)nc2ccccc21 (stereo not given)
19,648,CCOc1ccc(C(=O)NCC(=O)Nc2nc3ccccc3[nH]2)cc1
20,909,COC(=O)C1=CN(c2cc(Cl)ccc2OC)c2cc(F)ccc2S1(=O)=O
21,809,CCCS(=O)(=O)c1ccc(N2CCN(c3ccccc3OC)CC2)nn1
22,741,COCc1c(C(=O)O)nnn1-c1ccc(C)c(F)c1
23,869,O=C(Cc1nnc(-c2cccc(Br)c2)o1)NCc1ccc(F)cc1Cl

row,RP-LC retention time [s],Compound
1,1430,CN1C(=O)c2ccccc2Sc2ccc(NC(=O)N3CCC(C(N)=O)CC3)cc21
2,1040,CN1C(=O)CCc2cc(NS(=O)(=O)c3ccc(Cl)c(Cl)c3)ccc21
3,612,CCCCN(C)CCCNC(=O)c1ccc2c(c1)NC(=O)C(C(C)CC)N2 (stereo not given)
4,648,CCOc1ccc(NC(=O)N2CCN(c3cnn4c(C)nnc4c3)CC2)cc1
5,813,Cc1oc(C2CCN(C(=O)Nc3cccc(Cl)c3C)CC2)nc1C(=O)N1CCCC1
6,671,COc1ccc2oc(-c3noc(C(=O)NCCCN4CCCC4)n3)c(C)c2c1
7,754,O=C1CC(/C=C/c2ccccc2)Cc2nc(N3CCN(c4ccccn4)CC3)ncc21 (stereo not given)
8,616,Cn1cccc(C(=O)N2CCC3(CC2)OCCN3S(=O)(=O)c2ccccc2)c1=O
9,574,O=C(NCc1cccs1)C1CCCN(C(=O)c2cc(-c3ccncc3)n[nH]2)C1 (stereo not given)
10,771,CCCNc1cc(-n2nc(C)cc2C)ncn1
11,753,COc1cccc(CNC(=O)C2CCCN(c3ccc(-c4nc(C)no4)cn3)C2)c1OC (stereo not given)
12,823,O=C(O)c1cnn2c(C(F)(F)F)cc(-c3ccc(F)cc3)nc12
13,1030,Clc1ccc(Sc2c(-c3ccccc3)nc3ncccn23)cc1
14,637,Cc1ccc(S(=O)(=O)CCc2noc(C(=O)NCCCN3CCC(C)CC3)n2)cc1
15,672,Cc1ccc(NC(=O)N2CCC(n3cnnc3C3CC3)C2)cc1Cl (stereo not given)
16,855,Cc1cc(N2C=C(C(=O)N3CCOCC3)S(=O)(=O)c3ccccc32)ccc1Br
17,968,CC1Oc2ccc(-c3csc(NC(=O)c4ccccc4Cl)n3)cc2N(C)C1=O (stereo not given)
18,1160,COc1ccccc1C(=O)N1CC(Oc2ccc(-c3nc(-c4ccccc4)no3)cc2)C1
19,954,O=C(NC1CCCC1)C(c1ccc(Cl)cc1)N1CCN(C(=O)c2ccco2)CC1 (stereo not given)
20,903,COc1ccccc1N1CCN(c2ncc(S(=O)(=O)c3ccccc3)c(N)n2)CC1
21,612,O=C(CCC(=O)N1CCN(c2ccc(=O)n(-c3ccccc3)n2)CC1)N1CCOCC1
22,696,COCCN1C(=O)[C@H]2CN(Cc3cc(Cl)ccc3F)C[C@H]2C1=O
23,592,CCc1nnc(-c2ccc(S(=O)(=O)N3CCN(C(C)C)CC3)o2)o1

row,RP-LC retention time [s],Compound
1,738,Cc1oc2ncnc(OCC(=O)Nc3ccc(S(N)(=O)=O)cc3)c2c1C
2,1100,COc1ccc(-c2nc(Cn3ccn4nc(-c5ccccc5OC)cc4c3=O)c(C)o2)cc1
3,727,COc1cccc(CNC(=O)Cn2c(C)nc3onc(C)c3c2=O)c1
4,646,CC(NC(=O)c1ccco1)C(=O)NCc1nn(C)c2ccccc12 (stereo not given)
5,568,Cc1nnc(-c2nnc(N3CCCC3)c3ccccc23)o1
6,703,COc1cc2c(cc1OC)CN(C(=O)c1cc(-c3cccs3)[nH]n1)CC2
7,650,CCOC(=O)C(=O)Nc1ccc(OC)c(OC)c1
8,988,Cn1c(C(=O)Nc2ccc(F)cc2Cl)cc2c(=O)oc3ccccc3c21
9,896,O=S(=O)(c1ccccc1)N1CCC(c2nc(CCOCC3CC3)no2)C1 (stereo not given)
10,773,CCCCNC(=O)Cn1c(=O)c2cccn2c2ccc(F)cc21
11,655,NC(=O)C1CCN(C(=O)c2ccc(Cn3c(=O)c4cccn4c4cccnc43)cc2)CC1
12,592,Cc1cc2c(N3CCCC(C(=O)NCc4ccc(N5CCC(C)CC5)cc4)C3)nccc2s1 (stereo not given)
13,836,CCOc1ccc(C(=O)N2CCC3(CC2)NC(=O)c2cc(F)ccc2N3CC)cc1
14,890,CCc1csc(-c2ccc(N3CCN(C(=O)c4ccc(F)cc4F)CC3)nc2)n1
15,897,Cc1ccc(CCNC(=O)C2CCCN(c3ncnc4c3nc3n4CCCCC3)C2)cc1 (stereo not given)
16,580,NCCc1noc(-c2ccccc2)n1
17,610,Cn1c(=O)c2c(ncn2CC(=O)N2CCC(Cc3nc(C4CCOCC4)no3)CC2)n(C)c1=O
18,1270,CCn1cccc1-c1nc(C)c(C(=O)Nc2ccc(C)c(C)c2)s1
19,674,Cc1nnc(C2CCCCCN2C(=O)CCc2c(C)noc2C)o1 (stereo not given)
20,780,CC(C)c1noc(COC2CCCN(C(=O)NCc3ccccc3)C2)n1 (stereo not given)
21,740,COc1cccc(S(=O)(=O)N2CCOCCNC(=O)[C@@H]3CCC[C@@H]32)c1
22,690,CCOc1ccc(NC(=O)N2CCC(c3cc(N)on3)CC2)cc1
23,1000,Cc1nc(-c2csc(S(=O)(=O)N3CCC(C(=O)Nc4cccc(Cl)c4)CC3)c2)no1

row,RP-LC retention time [s],Compound
1,688,Cc1ccc(N2CCC(NC(=O)NC(C)C)C2=O)cc1 (stereo not given)
2,593,CCN(CC)c1ccc(-c2noc(CN3CCC(C)CC3)n2)cn1
3,622,O=C(c1ccccc1OCC1CCCN(C2CCC3(CC2)OCCO3)C1)N1CCCC1 (stereo not given)
4,855,CCc1ccc(Nc2nc(C(=O)NCCc3ccco3)nc3ccccc23)cc1
5,730,CCCn1c(C)cnc1CC1CCN(S(=O)(=O)c2ccc3c(c2)CCC3)C1 (stereo not given)
6,753,COc1ccc(Cl)cc1NC(=O)CSc1ccc(N2CCCC(C(=O)NC3CC3)C2)nn1 (stereo not given)
7,922,O=C(c1cn2nc(Cl)ccc2n1)N1CCN(c2ccccc2Cl)CC1
8,590,CC(=O)N1CCc2cc(N3CC(C(=O)NCC4CCCO4)CC3=O)ccc21 (stereo not given)
9,698,CC(C)CNC(=O)CN1C(=O)C2CCCCN2c2ccc(S(=O)(=O)N(C)C)cc21 (stereo not given)
10,639,Cc1cc2oc(C(=O)NCC(c3ccccc3)N(C)C)cc(=O)c2cc1C (stereo not given)
11,1060,O=C(NC1CCCC1)c1cn(Cc2ccccc2)cc2c(=O)n(-c3ccccc3)nc1-2
12,843,CCCN(CC1CCOC1)C(=O)Nc1ccc(Cl)cc1 (stereo not given)
13,813,CC1CCN(S(=O)(=O)c2ccc3nn(CC#N)c(=O)n3c2)CC1
14,833,Cc1cc(N2CCN(c3ccccn3)CC2)n2nc(C(F)(F)F)c(-c3ccccc3Cl)c2n1
15,793,CC(Oc1ccc(=O)n(-c2ccc(F)cc2)n1)C(=O)Nc1cccc(F)c1 (stereo not given)
16,550,O=C1NCCCn2cc(S(=O)(=O)N3CCN(c4ccccn4)CC3)cc21
17,702,O=C(Cn1nc2n(c1=O)CCCCC2)NCc1ccc(Cl)cc1
18,825,COCCn1cc2c3c(cccc31)CN(C(=O)Nc1cc(OC)c(OC)c(OC)c1)CC2
19,1020,Cc1ccc(CN2CC(=O)N3CCc4c([nH]c5ccccc45)C3(C)C2=O)cc1 (stereo not given)
20,1000,CCS(=O)(=O)c1ccc2c(c1)N(Cc1nc(-c3ccc(C)c(C)c3)no1)C(=O)CO2
21,632,CCn1cc(-c2ccnc3[nH]c(-c4cccc(CN(C)C)c4)cc23)c(-c2ccc(NC(=O)N(C)C)cc2)n1
